According to patent publication US12059464B2, “Combination therapy involving antibodies against Claudin 18.2 for treatment of cancer” (Astellas Pharma Inc., priority 2012, dated 2024):

Key:
[1] = system: NUGC-4 gastric cancer cells; test: IMAB362-mediated ADCC on chemotherapy-pretreated NUGC-4 cells; assay type: cell-based, human; details: NUGC-4 pretreated with 5-FU+OX, EOF or FLO for 96 hours
Experimental: IMAB362-mediated ADCC was investigated using NUGC-4 gastric cancer cells as target, which were either pretreated with 10 ng/ml 5-FU and 500 ng/ml oxaliplatin (5-FU+OX), 10 ng/ml epirubicin, 500 ng/ml oxaliplatin and 10 ng/ml 5-FU (EOF) or 10 ng/ml 5-FU, 50 ng/ml folinic acid and 500 ng/ml oxaliplatin (FLO) for 96 hours (effector:target ratio 40:1) or untreated. EC50 values were obtained from 7 healthy donors for untreated and EOF, FLO or 5-FU+OX pretreated NUGC-4 cells.

[2] = system: NUGC-4 cells expressing CLDN18.2; test: IMAB362 ADCC on NUGC-4 cells with PBMCs cultivated with IL-2 with or w/o ZA (luciferase assay); assay type: cell-based, human; details: PBMCs cultivated for 14 days with ZA/IL-2; IMAB362 0.26 ng/ml-200 μg/ml
Experimental: Specific killing was determined in luciferase assays; cf. FIG. 14a. […] NUGC-4 served as target cells.

[3] = system: CLDN18.2-positive (NUGC-4, KATO III) and negative (SK-BR-3) human target cell lines; test: IMAB362 ADCC with ZA/IL-2 expanded effector cells on CLDN18.2-positive and negative target cell lines; assay type: cell-based
Experimental: These effector cell cultures were used in ADCC assays with CLDN18.2-positive (NUGC-4, KATO III) and negative (SK-BR-3) human target cell lines (E:T ratio 40:1). […] ADCC was measured in luciferase assays; cf. FIG. 15a. […] FIG. 15b. Same experiment as described in (a) was performed using NUGC-4 as target cells; cf. FIG. 15c. […] A purity of more than 97.0% Vγ9Vδ2 T cells in lymphocytes was obtained.

NUGC-4 xenografts = test: In vivo tumor targeting of Dyelight 680-labeled antibodies (fluorescence imaging); set-up: species or system nude mice
[4] = system: HEK293~CLDN18.2 transfectants; test: Early treatment of HEK293~CLDN18.2 tumor xenografts; assay type: in vivo, nude mice; details: 200 μg twice per week for 6 weeks i.v./i.p., start 3 days after inoculation
Description: (§1) Moreover, advanced tumor treatment experiments were initiated up to 9 days after tumor cell inoculation when tumors had reached volumes of about 60-120 mm^3.
Nude mice were subcutaneously inoculated with 1×10^7 HEK293˜CLDN18.2 transfectants. Treatment of 10 mice per group started 3 days after tumor inoculation. […] Not only time to death was prolonged, but 4 of 10 mice survived the entire observation period of 210 days.

[5] = system: HEK293~CLDN18.2 tumor xenografts; test: Treatment of advanced HEK293~CLDN18.2 tumor xenografts; assay type: in vivo, nude mice
Description: as §1
(§2) Treatment of 9 to 10 mice per group was initiated when mean tumor volumes reached 88 mm^3 (62-126 mm^3). […] All mice in the groups treated with either PBS or isotype control died within 50-100 days. […] Three of these mice survived the entire observation period (FIG. 20). Importantly, antitumoral efficacy in vivo depends on the presence of the target on the tumor cells.

[6] = system: CLDN18.2-negative HEK293 tumor cells; test: IMAB362 treatment of mice engrafted with CLDN18.2-negative tumor cells; assay type: in vivo; details: CLDN18.2-negative tumors
Description: as §2

[7] = system: NUGC-4~CLDN18.2 xenografts; test: IMAB362 immunotherapy of NUGC-4~CLDN18.2 xenografts; set-up: species or system mice; details: mouse, in vivo
[8] = system: NUGC-4~CLDN18.2 xenograft tumors; test: Combination therapy with IMAB362 and EOF regimen on NUGC-4~CLDN18.2 xenografts; assay type: in vivo, nude mice; details: chemotherapy day 3, 10, 17, 24; IMAB362 weekly
Experimental: Mice were treated on day 3, 10, 17 and 24 with chemotherapeutic agents. IMAB362 treatment was continued weekly.

[9] = system: CLDN18.2-transfected HEK293 cells; test: IMAB362 with ZA/IL-2 induced Vγ9Vδ2 T cells on HEK293~CLDN18.2 tumors in NSG mice; assay type: in vivo; details: 200 μg IMAB362 semi-weekly in the presence of human γδ T cells and ZA (plus IL-2)
Experimental: NSG mice lack mature T cells, B cells, natural killer (NK) cells, multiple cytokine signaling pathways, and they have many defects in innate immunity, whereas the niches in the primary and secondary immunological tissues are permissive to colonization by human immune cells.
NSG mice were inoculated subcutaneously with 1×10^7 CLDN18.2-transfected HEK293 cells. On the same day, mice received 8×10^6 human PBMCs enriched for Vγ9Vδ2 T cells, which were cultured for 14 days in ZA-supplemented medium. […] To maintain human T cells functional, IL-2 was administered semi-weekly and ZA weekly. […] In addition to 9 mice treated as described, two control groups of mice were established.

[10] = system: CLS-103~cldn18.2 allograft tumors; test: Combination therapy with IMAB362 and EOF on CLS-103~cldn18.2 allograft tumors; assay type: in vivo, NMRI mice; details: EOF i.p. day 3, 10, 17, 24; IMAB362 800 μg i.v.; IL-2 3000 IE s.c. semi-weekly
Description: CLS-103˜cldn18.2 allograft tumors were inoculated by injection of 1×10^6 CLS-103˜cldn18.2 cells subcutaneous into the flank of 10 NMRI mice for each treatment group. […] After end of chemotherapy, IMAB362 and IL-2 treatment was continued for the whole observation period. Tumor size and animal health were monitored semi-weekly.

[11] = target: first extracellular domain (ECD1) of CLDN18.2 (Homo sapiens, UniProt P56856); test: Binding of IMAB362 to CLDN18.2
[12] = system: CLDN18.2-positive cancer cell lines; test: IMAB362 treatment of mice bearing CLDN18.2-positive cancer cell lines; details: mouse, in vivo
[13] = Repeated dose toxicity study in mice; assay type: in vivo; details: weekly administration for 3 months, highest dose levels 400 mg/kg
Description: (§3) This compartimentalization is lost upon malignant transformation rendering the epitope drugable by IMAB362.

[14] = Repeated dose toxicity studies in cynomolgus monkeys; assay type: in vivo; details: up to 5 weekly applications of up to 100 mg/kg
Description: as §3

[15] = Toxicity and PK/TK profile studies (all toxicity studies); assay type: in vivo, mice and cynomolgus monkeys
Description: as §3

[16] = Phase I clinical study, single intravenous administration; assay type: in vivo, human
Description: IMAB362 is in early clinical testing. A phase I clinical study has been conducted in human. […] In an ongoing phase IIa clinical study IMAB362 is given repetitively.

[17] = system: NUGC-4 gastric cancer cells; test: NUGC-4 gastric tumor xenograft model
Description: Tumor sizes were monitored twice weekly.
Mice were stratified size-dependently into treatment groups (FIG. 21).

[18] = system: NCI-N87~CLDN18.2 xenograft tumors; test: IMAB362 immunotherapy of NCI-N87~CLDN18.2 gastric carcinoma xenografts
Description: NCI-N87˜CLDN18.2 xenograft tumors were inoculated subcutaneously by injection of 1×10^7 NCI-N87˜CLDN18.2 cells into the flank of 8 nude mice (female, 6 weeks old) per treatment group. […] Intravenous administration was continued weekly for the whole observation time. Tumor size and animal health was monitored semi-weekly. […] Mice were sacrificed, when tumor reached a volume of 1400 mm^3

[19] = system: NCI-N87~CLDN18.2 xenograft tumors; test: Combination therapy with IMAB362 and EOF regimen on NCI-N87~CLDN18.2 xenografts
Experimental: NCI-N87˜CLDN18.2 xenograft tumors were inoculated by injection of 1×10^7 NCI-N87˜CLDN18.2 cells subcutaneous into the flank of 9 mice for each treatment group. […] Tumor size and animal health was monitored semi-weekly. […] The size of s.c. tumors was measured twice weekly (mean+SEM; *p<0.05). […] Mice were sacrificed, when tumor reached a volume of 1400 mm^3.

Substance: IMAB362: chimeric IgG1 antibody directed against CLDN18.2, developed by Ganymed Pharmaceuticals AG
- maximal lysis in IMAB362-mediated ADCC versus untreated target cells [1]: higher maximal lysis
- ADCC activity against CLDN18.2-positive NUGC-4 cells [2]: Strong IMAB362-dependent ADCC activity
- ADCC activity with purified (>97%) Vγ9Vδ2 T cells ([3]; NUGC-4 targets, cells sorted from ZA/IL-2-cultured PBMC on day 14): retained and partly improved
- ADCC activity on CLDN18.2-positive versus CLDN18.2-negative cell lines ([3]; ZA/IL-2 cultured effector cells, E:T ratio 40:1): Strong ADCC activity against CLDN18.2-positive, but not CLDN18.2-negative human tumor cell lines
- localisation of labeled antibody, live imaging (NUGC-4 xenografts; 24 hours after i.v. injection, 80 μg Dyelight 680-labeled antibody): accumulates strongly and exclusively in the tumor xenografts
- retention of labeled antibody signal in tumor (NUGC-4 xenografts; 120 hours after injection): detectable in comparable intensity even after 120 hours
- mice surviving the entire observation period of 210 days [4]: 4 of 10
- median survival time ([5]; 200 μg twice per week for 6 weeks, start at mean tumor volume 88 mm^3, controls 25 days): 47 days
- mice surviving the entire observation period ([5]; 9 to 10 mice per group): Three
- antitumoral effects [6]: No antitumoral effects
- survival [7]: significantly (p<0.05) longer survival
- tumor sizes at day 14 of treatment [7]: significant (p<0.05) smaller tumor sizes
- tumor growth [8]: inhibited significantly the tumor growth
- outgrowth of CLDN18.2-positive tumors [9]: significantly inhibited and nearly abrogated
- tumor growth inhibition [10]: no significant tumor growth inhibition
- affinity and specificity for CLDN18.2 ECD1 [11]: high affinity and specificity
- mice showing regression of their tumor [12]: up to 40%
- tolerability of repeated i.v. doses [13]: well tolerated
- tolerability of repeated i.v. doses [14]: well tolerated
- gastric toxicity ([15]; any toxicity study): no gastric toxicity
- adverse effects on male or female reproductive organs ([15]; in vivo): No adverse effects
- immune activation and cytokine release ([15]; in vivo): does not induce immune activation and cytokine release
- systemic or local toxicity ([15]; repeated i.v. doses): No signs of systemic or local toxicity
- tolerability in patients ([16]; single i.v. administration, 33-1000 mg/m^2, observed for 28 days): very well tolerated
- tumor markers in one patient ([16]; within 4 weeks after treatment): decreased significantly
- tumor growth compared to controls ([17]; 200 μg twice weekly i.v./i.p. starting 6 days after inoculation, p<0.05): significant inhibited
- tumor volumes at day 21 after tumor inoculation compared to control mice ([17]; p<0.05): significant smaller
- median survival time ([17]; treatment initiated at about 109 mm^3, versus 25 days, non-significant): 31 days
- tumor growth rate ([17]; treatment initiated at mean tumor size of about 109 mm^3): significantly reduce tumor growth rate
- tumor growth ([18]; 800 μg i.v. weekly from day 5, versus saline): inhibited highly significant (p<0.001) tumor growth
- survival time ([18]; 800 μg i.v. weekly, sacrifice at 1400 mm^3): significantly (p<0.05) longer survival time
- tumor growth ([19]; EOF i.p. day 4, 11, 18, 25, IMAB362 800 μg i.v. weekly): highly significant suppressed tumor growth
- median survival ([19]; saline control 59 days, sacrifice at 1400 mm^3): 76 days
